Experimental findings from ChEMBL document CHEMBL1201862, “PubChem BioAssay data set” (2004) are described below.

Among the test systems are SK-MEL-5; CCRF-CEM; COLO 205; SN12C; IGROV-1; OVCAR-8; HCT-15; SNB-19; UACC-62; TK-10; OVCAR-5; 786-0; SF-539; RPMI-8226; LOX IMVI; CAKI-1; NCI-H522.
What all share (test): NCI tumour cell line growth inhibition, 48 h

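These data come from cells grown in 96-well plates and exposed to compound for 48 hours at five concentrations. GI50 = concentration required for 50% inhibition of growth.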 The source made the active and inactive calls. No stated cut-off is given here; in the data, active = GI50 up to about 1.1 µM and inactive = higher.

On to `Cc1nc(-n2nc(-c3ccccc3)cc2-c2ccccc2)sc1C(/C=C/c1ccc([N+](=O)[O-])cc1)=N/NC(=O)c1ccncc1`, for which the GI50 in the assay on SK-MEL-5 is 18.1 µM (inactive); in the assay on CCRF-CEM, 7.6 µM (inactive); in the assay on COLO 205, 21.6 µM (inactive); in the assay with SN12C it was 24.2 µM (inactive); in the assay on IGROV-1, 21.1 µM (inactive); in the assay on OVCAR-8, 28.9 µM (inactive). The GI50 with HCT-15 was 14.7 µM; with SNB-19, 14 µM (inactive); in the assay with UACC-62, 19.4 µM (inactive); in the assay with TK-10, 32.6 µM (inactive); in the assay with OVCAR-5, 53.1 µM (inactive); in the assay on 786-0, 13.5 µM (inactive). The GI50 was 13.1 µM (inactive) with SF-539, 7.16 µM (inactive) in the assay with RPMI-8226 and 14.2 µM (inactive) with LOX IMVI.

With `CC(C)C1N2CCCCC2[C@@H]2c3[nH]c4ccccc4c3CCN12` (stereo partly drawn), the GI50 with SK-MEL-5, in the assay with CCRF-CEM, with COLO 205, with SN12C, with IGROV-1 and with OVCAR-8 was > 100 µM (inactive) each time. Further, the GI50 in the assay on HCT-15 is greater than 100 µM; in the assay with SNB-19, > 100 µM (inactive); in the assay with UACC-62, > 100 µM (inactive); in the assay on OVCAR-5 it was > 100 µM (inactive); in the assay with 786-0, > 100 µM (inactive); in the assay with SF-539, > 100 µM (inactive). Moreover, the GI50 with RPMI-8226 and in the assay on CAKI-1 was > 100 µM (inactive) each time.

Regarding `COC1(OC)CC2C=C(S(=O)(=O)c3ccccc3)C1N(Cc1ccccc1)C2=O` (stereo not drawn), the GI50 in the assay with SK-MEL-5 was 32.3 µM (inactive); in the assay on CCRF-CEM it was 16.2 µM (inactive); in the assay on COLO 205 it was 19.9 µM (inactive); in the assay on SN12C, 23 µM (inactive); in the assay on IGROV-1, 37.2 µM (inactive); in the assay on OVCAR-8, 23 µM (inactive). Moreover, the GI50 in the assay with SNB-19 is 39.8 µM (inactive); in the assay on UACC-62, 20.2 µM (inactive); in the assay on TK-10, 26.6 µM (inactive); with NCI-H522 it was 16.4 µM (inactive); in the assay with 786-0, 39.4 µM (inactive); in the assay with SF-539, 21 µM (inactive). The GI50 with LOX IMVI is 16.1 µM (inactive).

Consider `COc1cc(Cl)c2c3c(c(C(C)=O)oc13)CCC2`, for which the GI50 in the assay with SK-MEL-5, in the assay on CCRF-CEM, with COLO 205, with SN12C, in the assay with IGROV-1 and in the assay with OVCAR-8 was > 100 µM (inactive) throughout. In addition, the GI50 in the assay on HCT-15 was greater than 100 µM; with SNB-19 it was > 100 µM (inactive); in the assay with UACC-62 it was > 100 µM (inactive); with TK-10, > 100 µM (inactive); with 786-0 it was > 100 µM (inactive); in the assay with SF-539, > 100 µM (inactive). Moreover, the GI50 with RPMI-8226 is 86.9 µM (inactive); in the assay on CAKI-1, > 100 µM (inactive); in the assay on LOX IMVI it was > 100 µM (inactive).

Consider `O=C(CSc1nc(=O)c(-c2ccccc2NC(=O)C(F)(F)F)n[nH]1)NC(=O)Nc1ccccc1`, for which the GI50 in the assay on SK-MEL-5 is > 10 µM (inactive); in the assay with CCRF-CEM, 94.8 µM (inactive); in the assay on COLO 205, > 100 µM (inactive); in the assay with SN12C, > 100 µM (inactive); with IGROV-1, > 100 µM (inactive); in the assay with OVCAR-8, > 100 µM (inactive). Further, the GI50 in the assay on HCT-15 was greater than 100 µM; in the assay with SNB-19, > 100 µM (inactive); with UACC-62 it was 50 µM (inactive); in the assay with TK-10 it was 45.9 µM (inactive); in the assay with OVCAR-5, > 100 µM (inactive); in the assay with NCI-H522, 76.4 µM (inactive). In addition, the GI50 with 786-0 is > 100 µM (inactive); in the assay on SF-539 it was > 100 µM (inactive); in the assay on CAKI-1 it was 48.1 µM (inactive); in the assay on LOX IMVI, > 100 µM (inactive).
